According to ChEMBL document CHEMBL5126611, “Design, Synthesis, and Biological Evaluations of Pyridyl 4,5,6,7-Tetrahydro-4,7-Methanobenzo[d]isoxazoles as Potent and Selective Inhibitors of 11β-Hydroxylase” (J Med Chem, 2022):

Columns and labels:
[1] = Cmax in Sprague-Dawley rat at 5 mg/kg, iv measured up to 24 hrs by LC-MS analysis; type: ADME, organism-based; parameters: dose 5 mg/kg, time < 24 hrs, route iv; conditions: in vivo
[2] = Reduction of cortisol elevation in Sprague-Dawley rat at 25 mg/kg, po measured after 4 hrs by liquid chromatography-tandem mass spectrometry analysis (reference value: 376+/- 22 ng/L); type: functional
[3] = target: T1, Cytochrome P450 11B1, mitochondrial (Homo sapiens, UniProt P15538); experiment: Inhibition of human CYP11B1 expressed in Chinese hamster V79 MZh cells using [14C]-deoxycorticosteron as substrate measured after 6 hrs by phosphoimager analysis; type: ADME, cell-based
T1 sequence (P15538 whole entry): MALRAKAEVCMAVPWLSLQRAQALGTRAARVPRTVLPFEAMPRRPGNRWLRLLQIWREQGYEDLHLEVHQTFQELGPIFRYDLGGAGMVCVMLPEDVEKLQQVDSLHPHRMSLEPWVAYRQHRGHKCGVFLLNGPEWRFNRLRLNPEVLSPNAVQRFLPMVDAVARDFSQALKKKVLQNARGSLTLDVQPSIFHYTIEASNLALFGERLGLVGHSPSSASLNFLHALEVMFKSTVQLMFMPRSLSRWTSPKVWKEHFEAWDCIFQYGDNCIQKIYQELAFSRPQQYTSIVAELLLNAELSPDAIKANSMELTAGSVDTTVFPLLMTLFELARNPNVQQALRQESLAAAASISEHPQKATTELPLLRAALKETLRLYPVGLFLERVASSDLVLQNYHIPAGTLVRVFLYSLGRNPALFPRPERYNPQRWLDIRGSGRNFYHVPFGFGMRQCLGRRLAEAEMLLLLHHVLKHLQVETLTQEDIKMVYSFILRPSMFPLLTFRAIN

[4] = Selectivity ratio of IC50 for inhibition of rat CYP11B2 to IC50 for inhibition of rat CYP11B1; type: ADME
[5] = Cytotoxicity against human HepG2 cells assessed as reduction in cell viability; type: toxicity, cell-based; conditions: read-out: LC50 (the source's name)
[6] = Selectivity ratio of IC50 for inhibition of human CYP11B2 to IC50 for inhibition of human CYP11B1; type: ADME
Aromatase = target: T2, Aromatase (Homo sapiens, UniProt P11511); experiment: Inhibition of human placental microsome CYP19 using [1beta-3H]-androstenedione as substrate; type: ADME, microsomes, Placenta
T2 sequence (P11511 whole entry): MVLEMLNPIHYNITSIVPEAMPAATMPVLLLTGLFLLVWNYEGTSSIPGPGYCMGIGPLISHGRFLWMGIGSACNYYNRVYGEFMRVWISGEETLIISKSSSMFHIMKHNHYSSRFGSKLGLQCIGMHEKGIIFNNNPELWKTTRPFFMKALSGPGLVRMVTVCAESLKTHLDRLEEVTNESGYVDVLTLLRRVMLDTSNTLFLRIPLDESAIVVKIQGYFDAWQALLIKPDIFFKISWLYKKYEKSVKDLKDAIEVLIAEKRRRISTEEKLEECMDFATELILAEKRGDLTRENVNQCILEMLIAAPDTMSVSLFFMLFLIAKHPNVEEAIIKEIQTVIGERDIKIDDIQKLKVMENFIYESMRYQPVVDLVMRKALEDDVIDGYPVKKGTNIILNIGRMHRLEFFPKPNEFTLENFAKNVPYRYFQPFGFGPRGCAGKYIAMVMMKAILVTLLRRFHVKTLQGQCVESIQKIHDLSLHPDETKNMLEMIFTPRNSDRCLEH

[7] = target: T3, Cytochrome P450 11B2, mitochondrial (Homo sapiens, UniProt P19099); experiment: Inhibition of human CYP11B2 expressed in Chinese hamster V79 MZh cells using [14C]-deoxycorticosteron as substrate measured after 6 hrs by phosphoimager analysis; type: ADME, cell-based
T3 sequence (P19099 whole entry): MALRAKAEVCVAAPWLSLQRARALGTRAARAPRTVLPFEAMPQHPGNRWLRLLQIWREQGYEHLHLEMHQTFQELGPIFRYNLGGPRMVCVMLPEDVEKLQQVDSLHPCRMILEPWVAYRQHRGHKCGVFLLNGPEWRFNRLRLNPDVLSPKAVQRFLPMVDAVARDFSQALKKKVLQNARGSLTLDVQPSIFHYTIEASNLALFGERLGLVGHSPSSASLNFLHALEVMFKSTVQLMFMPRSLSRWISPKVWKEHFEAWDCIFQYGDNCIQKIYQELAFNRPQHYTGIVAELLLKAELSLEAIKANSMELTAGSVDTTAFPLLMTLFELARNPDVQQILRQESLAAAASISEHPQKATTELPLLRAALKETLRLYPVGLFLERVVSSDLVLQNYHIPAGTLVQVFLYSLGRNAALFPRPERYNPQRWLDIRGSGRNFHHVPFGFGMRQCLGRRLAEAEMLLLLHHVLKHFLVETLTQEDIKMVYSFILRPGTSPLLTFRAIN

Cytochrome P450 1A2 = target: T4, Cytochrome P450 1A2 (Homo sapiens, UniProt P05177); experiment: Inhibition of human hepatic recombinant CYP1A2 using cocktail of substrate by LC-MS/MS analysis; type: ADME
T4 sequence (P05177 whole entry): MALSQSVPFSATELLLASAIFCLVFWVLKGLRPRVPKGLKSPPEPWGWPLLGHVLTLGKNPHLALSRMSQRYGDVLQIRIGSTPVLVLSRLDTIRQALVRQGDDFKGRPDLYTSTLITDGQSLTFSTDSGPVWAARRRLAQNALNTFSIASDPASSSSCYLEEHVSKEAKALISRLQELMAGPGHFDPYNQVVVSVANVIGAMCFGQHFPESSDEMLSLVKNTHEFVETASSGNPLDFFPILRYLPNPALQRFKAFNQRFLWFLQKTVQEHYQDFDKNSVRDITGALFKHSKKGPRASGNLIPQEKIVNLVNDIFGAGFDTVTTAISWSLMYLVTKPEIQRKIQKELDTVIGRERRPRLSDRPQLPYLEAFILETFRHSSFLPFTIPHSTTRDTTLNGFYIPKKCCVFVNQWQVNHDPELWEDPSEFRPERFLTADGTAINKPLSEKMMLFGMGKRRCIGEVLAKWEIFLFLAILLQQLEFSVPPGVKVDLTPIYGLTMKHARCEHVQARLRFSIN

[8] = AUC (0 to infinity) in Sprague-Dawley rat at 25 mg/kg, po measured up to 24 hrs by LC-MS analysis; type: ADME, organism-based; parameters: dose 25 mg/kg, time < 24 hrs, route po; conditions: in vivo
[9] = Tmax in Sprague-Dawley rat at 5 mg/kg, iv measured up to 24 hrs by LC-MS analysis; type: ADME, organism-based; conditions: in vivo
[10] = Terminal half life in Sprague-Dawley rat at 25 mg/kg, po measured up to 24 hrs by LC-MS analysis; type: ADME, organism-based; conditions: in vivo, read-out: beta t1/2 (converted)
Cytochrome P450 2C9 = Cytochrome P450 2C9 (Homo sapiens, UniProt P11712); experiment: Inhibition of human hepatic recombinant CYP2C9 using cocktail of substrate by LC-MS/MS analysis; type: ADME
Chain of Cytochrome P450 2C9 (P11712 whole entry): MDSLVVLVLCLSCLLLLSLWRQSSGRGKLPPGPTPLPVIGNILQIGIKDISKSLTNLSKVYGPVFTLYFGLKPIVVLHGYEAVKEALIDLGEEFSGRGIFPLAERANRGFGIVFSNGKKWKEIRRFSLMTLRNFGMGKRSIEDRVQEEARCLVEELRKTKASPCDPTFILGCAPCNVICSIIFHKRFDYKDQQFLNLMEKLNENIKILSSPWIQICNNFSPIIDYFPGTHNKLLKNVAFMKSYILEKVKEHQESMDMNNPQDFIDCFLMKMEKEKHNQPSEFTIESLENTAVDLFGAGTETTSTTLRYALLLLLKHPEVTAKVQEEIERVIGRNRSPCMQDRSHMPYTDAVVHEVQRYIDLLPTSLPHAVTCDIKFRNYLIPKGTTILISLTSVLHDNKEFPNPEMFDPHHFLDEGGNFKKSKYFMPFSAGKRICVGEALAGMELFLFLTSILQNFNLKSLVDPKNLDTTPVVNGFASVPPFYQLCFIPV

Cytochrome P450 2C19 = Cytochrome P450 2C19 (Homo sapiens, UniProt P33261); experiment: Inhibition of human hepatic recombinant CYP2C19 using cocktail of substrate by LC-MS/MS analysis; type: ADME
Chain of Cytochrome P450 2C19 (P33261 whole entry): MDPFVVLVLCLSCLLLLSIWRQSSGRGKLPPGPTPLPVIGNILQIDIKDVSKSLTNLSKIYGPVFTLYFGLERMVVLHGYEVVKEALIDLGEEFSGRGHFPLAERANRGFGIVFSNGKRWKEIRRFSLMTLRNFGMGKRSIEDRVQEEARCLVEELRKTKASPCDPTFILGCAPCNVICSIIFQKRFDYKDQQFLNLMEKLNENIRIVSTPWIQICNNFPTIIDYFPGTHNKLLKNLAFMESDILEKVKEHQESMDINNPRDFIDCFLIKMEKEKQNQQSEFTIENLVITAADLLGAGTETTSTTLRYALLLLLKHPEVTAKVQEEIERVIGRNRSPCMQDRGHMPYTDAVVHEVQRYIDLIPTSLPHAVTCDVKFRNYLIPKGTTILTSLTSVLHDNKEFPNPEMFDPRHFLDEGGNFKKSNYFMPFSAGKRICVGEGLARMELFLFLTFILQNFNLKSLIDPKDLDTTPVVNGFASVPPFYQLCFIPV

Work on `O=C(Nc1ccc2[nH]ncc2c1)[C@]12ON=C(c3cccnc3)[C@H]1[C@@H]1CC[C@H]2C1` yielded a Cmax [1] of 12700 ng/mL, an Activity [2] of 28 ng/L and an IC50 [3] of 0.009 µM. The “Ratio IC50” value [4] was 81, the CC50 [5] was greater than 50 µM and the “Ratio IC50” value [6] was 125. For the same molecule, the IC50 (Aromatase) was greater than 10 µM, the IC50 [7] was 1.12 µM and the IC50 (Cytochrome P450 1A2) was greater than 10 µM. For the same molecule, the AUC(0-inf) [8] was 54500 ng·h/mL, the Tmax [9] was 0 h and the half-life [10] was 4.6 h. It also gave an IC50 (Cytochrome P450 2C9) greater than 10 µM and an IC50 (Cytochrome P450 2C19) greater than 10 µM.
